# Publication PMC7340670, “Phase I study of TAS-115, a novel oral multi-kinase inhibitor, in patients with advanced solid tumors” (Investigational New Drugs, 2019)
# Assays:
# [1] = system: patients; set-up: method as in data on file; conditions: tablet formulation, ref data on file, cited from earlier work
# [2] = system: patients with advanced solid tumors; assay: Phase I study (JapicCTI-132333): safety, tolerability, DLT, MTD, RP2D; assay type: in vivo
# Protocol: This is an open-label, nonrandomized, dose-escalation study conducted at five sites in Japan. The study has three parts: a dose-escalation cohort using a traditional 3 + 3 design (part 1), a dosing schedule investigation cohort (part 2), and an expansion cohort to assess the safety at the MTD or lower doses among more patients (expansion part).
# For each dose level in part 1, three to six patients were enrolled. DLTs were evaluated during the first cycle. […] The study drug was orally administered under empty stomach conditions (1 h before or 2 h after a meal) with a cup of water. […] In the expansion part, ≤MTD was investigated for exposure and safety.
# All patients in parts 1 and 2 were required to be hospitalized for cycle 1 in order to observe AE. Patients continued to receive the study drug until disease progression or intolerable toxicity. […] The number of dose reductions was up to 2, and the minimum dose was 100 mg/day. […]
# [3] = Part 1, 200–800 mg/day, SID (N = 21), patients (%)
# [4] = Part 2 + Expansion part, 450 or 650 mg/day, 5-on/2-off (N = 61), patients (%)
structure (smiles),measurement,setting,value
CNC(=O)c1cc2c(Oc3ccc(NC(=S)NC(=O)Cc4ccccc4)cc3F)ccnc2cc1OC [TAS-115],absorption,[1],saturated between 100 and 1200 mg
same,dose-limiting toxicities (DLTs),"[1]; ten patients, 100, 200, 400, 800, 1200 mg SID and 400 mg BID",no dose-limiting toxicities (DLTs) were observed
same,CRPC patients with AEs requiring dose reduction,"[2]; 650 mg/day, early expansion part",five of six
same,"Treatment-related adverse events: Alanine aminotransferase increased, Any Grade",[2]; [3],11 (52.4)
same,"Treatment-related adverse events: Alanine aminotransferase increased, ≥ Grade 3",[2]; [3],0 (0.0)
same,"Treatment-related adverse events: Amylase increased, Any Grade",[2]; [3],8 (38.1)
same,"Treatment-related adverse events: Amylase increased, ≥ Grade 3",[2]; [3],3 (14.3)
same,"Treatment-related adverse events: Anemia, Any Grade",[2]; [3],2 (9.5)
same,"Treatment-related adverse events: Anemia, ≥ Grade 3",[2]; [3],2 (9.5)
same,"Treatment-related adverse events: Any Events, Any Grade",[2]; [3],21 (100.0)
same,"Treatment-related adverse events: Any Events, ≥ Grade 3",[2]; [3],13 (61.9)
same,"Treatment-related adverse events: Aspartate aminotransferase increased, Any Grade",[2]; [3],15 (71.4)
same,"Treatment-related adverse events: Aspartate aminotransferase increased, ≥ Grade 3",[2]; [3],0 (0.0)
same,"Treatment-related adverse events: Decreased appetite, Any Grade",[2]; [3],7 (33.3)
same,"Treatment-related adverse events: Decreased appetite, ≥ Grade 3",[2]; [3],1 (4.8)
same,"Treatment-related adverse events: Diarrhea, Any Grade",[2]; [3],3 (14.3)
same,"Treatment-related adverse events: Diarrhea, ≥ Grade 3",[2]; [3],0 (0.0)
same,"Treatment-related adverse events: Edema, Any Grade",[2]; [3],6 (28.6)
same,"Treatment-related adverse events: Edema, ≥ Grade 3",[2]; [3],0 (0.0)
same,"Treatment-related adverse events: Face edema, Any Grade",[2]; [3],6 (28.6)
same,"Treatment-related adverse events: Face edema, ≥ Grade 3",[2]; [3],0 (0.0)
same,"Treatment-related adverse events: Fatigue, Any Grade",[2]; [3],10 (47.6)
same,"Treatment-related adverse events: Fatigue, ≥ Grade 3",[2]; [3],0 (0.0)
same,"Treatment-related adverse events: Hypophosphatemia, Any Grade",[2]; [3],6 (28.6)
same,"Treatment-related adverse events: Hypophosphatemia, ≥ Grade 3",[2]; [3],5 (23.8)
same,"Treatment-related adverse events: Leukocytopenia, Any Grade",[2]; [3],8 (38.1)
same,"Treatment-related adverse events: Leukocytopenia, ≥ Grade 3",[2]; [3],2 (9.5)
same,"Treatment-related adverse events: Lipase increased, Any Grade",[2]; [3],6 (28.6)
same,"Treatment-related adverse events: Lipase increased, ≥ Grade 3",[2]; [3],5 (23.8)
same,"Treatment-related adverse events: Nausea, Any Grade",[2]; [3],7 (33.3)
same,"Treatment-related adverse events: Nausea, ≥ Grade 3",[2]; [3],0 (0.0)
same,"Treatment-related adverse events: Neutropenia, Any Grade",[2]; [3],8 (38.1)
same,"Treatment-related adverse events: Neutropenia, ≥ Grade 3",[2]; [3],3 (14.3)
same,"Treatment-related adverse events: Rash, Any Grade",[2]; [3],12 (57.1)
same,"Treatment-related adverse events: Rash, ≥ Grade 3",[2]; [3],2 (9.5)
same,"Treatment-related adverse events: Thrombocytopenia, Any Grade",[2]; [3],8 (38.1)
same,"Treatment-related adverse events: Thrombocytopenia, ≥ Grade 3",[2]; [3],1 (4.8)
same,"Treatment-related adverse events: Vomiting, Any Grade",[2]; [3],4 (19.0)
same,"Treatment-related adverse events: Vomiting, ≥ Grade 3",[2]; [3],0 (0.0)
same,"Treatment-related adverse events: Alanine aminotransferase increased, Any Grade",[2]; [4],23 (37.7)
same,"Treatment-related adverse events: Alanine aminotransferase increased, ≥ Grade 3",[2]; [4],1 (1.6)
same,"Treatment-related adverse events: Amylase increased, Any Grade",[2]; [4],10 (16.4)
same,"Treatment-related adverse events: Amylase increased, ≥ Grade 3",[2]; [4],1 (1.6)
same,"Treatment-related adverse events: Anemia, Any Grade",[2]; [4],21 (34.4)
same,"Treatment-related adverse events: Anemia, ≥ Grade 3",[2]; [4],9 (14.8)
same,"Treatment-related adverse events: Any Events, Any Grade",[2]; [4],60 (98.4)
same,"Treatment-related adverse events: Any Events, ≥ Grade 3",[2]; [4],47 (77.0)
same,"Treatment-related adverse events: Aspartate aminotransferase increased, Any Grade",[2]; [4],31 (50.8)
same,"Treatment-related adverse events: Aspartate aminotransferase increased, ≥ Grade 3",[2]; [4],4 (6.6)
same,"Treatment-related adverse events: Decreased appetite, Any Grade",[2]; [4],26 (42.6)
same,"Treatment-related adverse events: Decreased appetite, ≥ Grade 3",[2]; [4],6 (9.8)
same,"Treatment-related adverse events: Diarrhea, Any Grade",[2]; [4],14 (23.0)
same,"Treatment-related adverse events: Diarrhea, ≥ Grade 3",[2]; [4],0 (0.0)
same,"Treatment-related adverse events: Edema, Any Grade",[2]; [4],10 (16.4)
same,"Treatment-related adverse events: Edema, ≥ Grade 3",[2]; [4],0 (0.0)
same,"Treatment-related adverse events: Face edema, Any Grade",[2]; [4],11 (18.0)
same,"Treatment-related adverse events: Face edema, ≥ Grade 3",[2]; [4],0 (0.0)
same,"Treatment-related adverse events: Fatigue, Any Grade",[2]; [4],27 (44.3)
same,"Treatment-related adverse events: Fatigue, ≥ Grade 3",[2]; [4],1 (1.6)
same,"Treatment-related adverse events: Hypophosphatemia, Any Grade",[2]; [4],20 (32.8)
same,"Treatment-related adverse events: Hypophosphatemia, ≥ Grade 3",[2]; [4],13 (21.3)
same,"Treatment-related adverse events: Leukocytopenia, Any Grade",[2]; [4],18 (29.5)
same,"Treatment-related adverse events: Leukocytopenia, ≥ Grade 3",[2]; [4],7 (11.5)
same,"Treatment-related adverse events: Lipase increased, Any Grade",[2]; [4],9 (14.8)
same,"Treatment-related adverse events: Lipase increased, ≥ Grade 3",[2]; [4],4 (6.6)
same,"Treatment-related adverse events: Nausea, Any Grade",[2]; [4],26 (42.6)
same,"Treatment-related adverse events: Nausea, ≥ Grade 3",[2]; [4],1 (1.6)
